Measurements reported in patent publication US20100196355A1, “Immunophilin Ligands and Methods for Modulating Immunophilin and Calcium Channel Activity” (Wyeth, priority 2007, published 2010).

Columns and labels:
[1] = test system: Ca2+ channels in cultured rat hippocampal neurons; assay: Whole-cell patch clamp recording of Ca2+ currents in hippocampal neurons; format: cell-based; details: 10 μM internal
Procedure: The whole-cell configuration of the patch-clamp technique was used to record calcium currents from the cells at room temperature using an EPC-9 amplifier (HEKA, Instrutech Corp.) with the acquisition and analysis program Pulse-PulseFit from HEKA (Lambrecht, Germany). Electrodes were fabricated using a P-87 puller (Sutter Instrument). […] The standard bath recording solution is Ca^2+ and Mg^2+ free HBSS (pH 7.4) containing 10 mM HEPES, 10 mM dextrose, and 4 mM BaCl2. Currents were filtered at 3 kHz, and the inward Ca^2+ currents were recorded from cells held at −90 mV with 10 mV depolarizing steps from −80 mV to 60 mV for 50 ms.

[2] = test system: FKBP52, FKBP25 and FKBP12; assay: Affinity chromatography on Compound 2 matrix (SDS-PAGE); format: binding, human; details: protein retained on compound beads vs blank beads
His6-tagged FKBP52 = molecular target: T1, His6-tagged FKBP52 (Homo sapiens, UniProt Q02790); assay: [3H]-FK506 binding on Ni-chelated FLASH plate
T1 construct: made in house
T1 sequence (Q02790 1-459): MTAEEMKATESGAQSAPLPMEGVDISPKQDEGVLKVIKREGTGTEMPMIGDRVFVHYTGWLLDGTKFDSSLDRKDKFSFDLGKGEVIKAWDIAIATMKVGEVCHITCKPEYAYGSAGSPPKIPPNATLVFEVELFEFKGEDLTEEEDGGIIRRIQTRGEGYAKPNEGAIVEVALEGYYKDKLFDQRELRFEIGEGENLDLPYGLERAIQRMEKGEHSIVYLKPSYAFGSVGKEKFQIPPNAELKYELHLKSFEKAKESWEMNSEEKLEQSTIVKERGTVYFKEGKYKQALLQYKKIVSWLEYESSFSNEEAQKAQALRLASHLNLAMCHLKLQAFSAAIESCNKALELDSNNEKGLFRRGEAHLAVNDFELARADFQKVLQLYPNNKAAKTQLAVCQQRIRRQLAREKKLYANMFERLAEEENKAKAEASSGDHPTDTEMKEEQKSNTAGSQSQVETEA
Procedure: Reactions were carried out in triplicate at 25° C. for 30 min. Kd were calculated using methods described by Carreras (Anal. Biochem. 298, 57-61 (2001)).

[3] = test system: rat cortical neuron cultures; assay: Transcriptional profiling of cortical neuron cultures; format: cell-based; details: 10 μM
Procedure: Cortical neuron cultures were prepared from E16 rat embryos. After plating for 24 hrs, cultures were treated with 10 μM immunophilin ligands and the corresponding vehicle. After treatment for 4 hrs, 12 hrs, 24 hrs and 48 hrs, cells were lysed. Total RNA from each sample was extracted with the RNEASY® Mini Kit (QIAGEN®). Double stranded cDNA was synthesized from 2 μg of each RNA sample using the […]® System (INVITROGEN®), purified, transcribed in vitro to prepare biotinylated cRNA using T7 RNA polymerase in the presence of biotin labeled UTP and CTP. The fragmented cRNAs were hybridized to a Rat Genome 230 2.0 […]® (AFFYMETRIX®, Santa Clara, Calif.) as recommended by the manufacturer. Hybridized arrays were stained according to manufacture protocols on a Fluidics Station 450 and subsequently scanned on an AFFYMETRIX® scanner 3000. The raw data was generated using AFFYMETRIX® MAS 5.0 Software. Transcriptional profiling data were analyzed in Ingenuity.

CO[C@H]1C[C@@H]2CC[C@@H](C)[C@@](O)(O2)C(=O)C(=O)N2CCCCC2C(=O)O[C@H]([C@H](C)C[C@@H]2CC[C@@H](O)[C@H](OC)C2)CC(=O)[C@H](C)/C=C(\C)[C@@H](O)[C@@H](OC)C(=O)[C@H](C)C[C@H](C)C2CC[C@H](/C=C/1C)ON2c1ccccc1 (stereo partly drawn) [Rapamycin analogue II, 9,27-dihydroxy-3-{2-[4-hydroxy-3-methoxycyclohexyl]-1-methylethyl}-10,21-dimethoxy-6,8,12,14,20,26-hexamethyl-37-phenyl-4,9,10,12,13,14,15,16,17,18,21,22,23,24,25,26,27,32,33,34,34a-henicosahydro-3H-23,27-epoxy-18,15-(epoxyimino)pyrido[2,1-c][1,4]oxazacyclohentriacontine-1,5,11,28,29(6H, 31H)-pentone]
inhibition of Ca2+ current ([1]; N-type Ca2+ channels blocked, after 10 min): 74.5+/−8.8 | inhibition of the remaining Ca2+ current ([1]; both N- and L-type Ca2+ channels blocked): 21.3+/−4.4% | binding to FKBP52, FKBP25 and FKBP12 [2]: binds | Kd (His6-tagged FKBP52): 0.48 ± 0.04 nM | fold change vs DMSO, ACTA1 ([3]; ACTA1): −1.6 fold | fold change vs DMSO, ACTA2 ([3]; ACTA2): 1.37 fold | fold change vs DMSO, AKAP5 ([3]; AKAP5): −1.5 fold | fold change vs DMSO, ASPH ([3]; ASPH): −3.27 fold | fold change vs DMSO, ATP2A2 ([3]; ATP2A2): 2 fold | fold change vs DMSO, ATP2B1 ([3]; ATP2B1): 1.81 fold | fold change vs DMSO, ATP2B3 ([3]; ATP2B3): −1.45 fold | fold change vs DMSO, ATP2C1 ([3]; ATP2C1): −1.32 fold | fold change vs DMSO, CABIN1 ([3]; CABIN1): 1.34 fold | fold change vs DMSO, CACNA1B ([3]; CACNA1B): −1.45 fold | fold change vs DMSO, CACNA1C ([3]; CACNA1C): 1.82 fold | fold change vs DMSO, CACNA1D ([3]; CACNA1D): −1.28 fold | fold change vs DMSO, CACNA2D1 ([3]; CACNA2D1): 5.73 fold | fold change vs DMSO, CACNB1 ([3]; CACNB1): −1.14 fold | fold change vs DMSO, CACNG2 ([3]; CACNG2): −2 fold | fold change vs DMSO, CACNG3 ([3]; CACNG3): −2.46 fold | fold change vs DMSO, CALM1 ([3]; CALM1): −1.63 fold | fold change vs DMSO, CALM2 ([3]; CALM2): −1.33 fold | fold change vs DMSO, CALM3 ([3]; CALM3): −1.52 fold | fold change vs DMSO, CALR ([3]; CALR): 1.19 fold | fold change vs DMSO, CAMK1 ([3]; CAMK1): −1.43 fold | fold change vs DMSO, CAMK1G ([3]; CAMK1G): −2.26 fold | fold change vs DMSO, CAMK2A ([3]; CAMK2A): −4.13 fold | fold change vs DMSO, CAMK2B ([3]; CAMK2B): −1.88 fold | fold change vs DMSO, CAMK2D ([3]; CAMK2D): −1.48 fold | fold change vs DMSO, CAMK4 ([3]; CAMK4): −1.33 fold | fold change vs DMSO, CHP ([3]; CHP): 1.54 fold | fold change vs DMSO, CREBBP ([3]; CREBBP): 5.84 fold | fold change vs DMSO, CYP27B1 ([3]; CYP27B1): −1.38 fold | fold change vs DMSO, DHCR7 ([3]; DHCR7): 1.73 fold | fold change vs DMSO, DSCR1 ([3]; DSCR1): −1.82 fold | fold change vs DMSO, DSCR1L1 ([3]; DSCR1L1): −4.73 fold | fold change vs DMSO, EBP ([3]; EBP): 1.32 fold | fold change vs DMSO, FDFT1 ([3]; FDFT1): 1.89 fold | fold change vs DMSO, FDPS ([3]; FDPS): 2.07 fold | fold change vs DMSO, GRIA1 ([3]; GRIA1): −2.16 fold | fold change vs DMSO, GRIA2 ([3]; GRIA2): 2.71 fold | fold change vs DMSO, GRIN1 ([3]; GRIN1): −2.8 fold | fold change vs DMSO, GRIN2B ([3]; GRIN2B): −1.57 fold | fold change vs DMSO, GRIN3A ([3]; GRIN3A): −2.94 fold | fold change vs DMSO, GRINA ([3]; GRINA): −1.2 fold | fold change vs DMSO, HDAC5 ([3]; HDAC5): 1.8 fold | fold change vs DMSO, HDAC6 ([3]; HDAC6): −1.13 fold | fold change vs DMSO, HDAC7A ([3]; HDAC7A): 1.27 fold | fold change vs DMSO, HMGCR ([3]; HMGCR): 2.26 fold | fold change vs DMSO, HTR3A ([3]; HTR3A): −1.64 fold | fold change vs DMSO, IDI1 ([3]; IDI1): 2.85 fold | fold change vs DMSO, ITPR3 ([3]; ITPR3): −1.93 fold | fold change vs DMSO, LSS ([3]; LSS): 13.19 fold | fold change vs DMSO, MAPK1 ([3]; MAPK1): 1.38 fold | fold change vs DMSO, MAPK3 ([3]; MAPK3): −1.19 fold | fold change vs DMSO, MVD ([3]; MVD): 1.81 fold | fold change vs DMSO, MVK ([3]; MVK): 1.6 fold | fold change vs DMSO, MYH1 ([3]; MYH1): −2.17 fold | fold change vs DMSO, MYH6 ([3]; MYH6): −5.93 fold | fold change vs DMSO, MYH7 ([3]; MYH7): −5.88 fold | fold change vs DMSO, MYL6B ([3]; MYL6B): −1.68 fold | fold change vs DMSO, NQO1 ([3]; NQO1): 1.64 fold | fold change vs DMSO, PMVK ([3]; PMVK): 1.25 fold | fold change vs DMSO, PPP3CB ([3]; PPP3CB): −1.27 fold | fold change vs DMSO, PPP3CC ([3]; PPP3CC): −1.27 fold | fold change vs DMSO, PPP3R1 ([3]; PPP3R1): −1.44 fold | fold change vs DMSO, PRKAG1 ([3]; PRKAG1): −1.24 fold | fold change vs DMSO, PRKAR1A ([3]; PRKAR1A): −1.1 fold | fold change vs DMSO, PRKAR1B ([3]; PRKAR1B): −3.18 fold | fold change vs DMSO, PRKAR2A ([3]; PRKAR2A): −1.23 fold | fold change vs DMSO, PRKAR2B ([3]; PRKAR2B): −1.5 fold | fold change vs DMSO, RAP1B ([3]; RAP1B): −1.33 fold | fold change vs DMSO, SC5DL ([3]; SC5DL): 1.94 fold | fold change vs DMSO, SQLE ([3]; SQLE): 1.9 fold | fold change vs DMSO, TPM1 ([3]; TPM1): −2.83 fold | fold change vs DMSO, TPM3 ([3]; TPM3): −1.99 fold | fold change vs DMSO, TRPC1 ([3]; TRPC1): −1.08 fold | fold change vs DMSO, TRPC3 ([3]; TRPC3): −1.95 fold | fold change vs DMSO, TRPC4 ([3]; TRPC4): −5.42 fold | fold change vs DMSO, TRPV6 ([3]; TRPV6): 1.73 fold | fold change, PLAU ([3]; plasminogen activator (PLAU)): −10 fold
